Reference: patent US6949531B2, “14 β, 16, 17-methylene steroids as novel androgens” (Akzo Nobel N.V., priority 2000, dated 2005)

target: T1, human androgen receptor (hAR) (Homo sapiens, UniProt P10275); test: transactivative androgen activity in CHO cells transfected with hAR, MMTV and luciferase reporter gene; format: cell-based; details: MMTV, luciferase, incubation 16 h, 37° C., compared with the activity of dihydrotestosterone
T1 construct: expressed in transfected cells; host or cells: Chinese hamster ovary (CHO) cells
T1 sequence (P10275 1-920): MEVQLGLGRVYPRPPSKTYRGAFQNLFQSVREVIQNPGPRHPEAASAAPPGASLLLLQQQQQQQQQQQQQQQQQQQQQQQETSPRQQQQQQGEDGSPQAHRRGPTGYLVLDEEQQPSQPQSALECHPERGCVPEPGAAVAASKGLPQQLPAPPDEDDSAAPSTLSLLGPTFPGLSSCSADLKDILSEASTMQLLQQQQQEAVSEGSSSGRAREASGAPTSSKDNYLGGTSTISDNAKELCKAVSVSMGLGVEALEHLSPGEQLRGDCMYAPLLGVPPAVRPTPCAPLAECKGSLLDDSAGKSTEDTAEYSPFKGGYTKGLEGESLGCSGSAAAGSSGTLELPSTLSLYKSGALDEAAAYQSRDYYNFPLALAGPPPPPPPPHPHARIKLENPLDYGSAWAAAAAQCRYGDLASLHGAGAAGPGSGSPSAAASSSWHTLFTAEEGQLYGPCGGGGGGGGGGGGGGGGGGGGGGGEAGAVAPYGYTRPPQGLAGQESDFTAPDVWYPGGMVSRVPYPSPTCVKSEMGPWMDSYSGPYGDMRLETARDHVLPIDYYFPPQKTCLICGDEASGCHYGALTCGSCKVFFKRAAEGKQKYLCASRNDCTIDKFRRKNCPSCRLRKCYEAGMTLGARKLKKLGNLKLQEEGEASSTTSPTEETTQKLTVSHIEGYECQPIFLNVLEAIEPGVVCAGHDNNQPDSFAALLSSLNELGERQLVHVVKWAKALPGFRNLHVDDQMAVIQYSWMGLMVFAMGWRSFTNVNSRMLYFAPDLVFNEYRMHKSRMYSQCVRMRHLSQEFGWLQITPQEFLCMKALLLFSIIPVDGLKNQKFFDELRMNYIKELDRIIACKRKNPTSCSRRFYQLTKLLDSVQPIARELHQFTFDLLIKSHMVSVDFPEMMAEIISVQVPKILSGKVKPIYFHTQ
Protocol: Androgenic activity can be measured in various ways. Thus, the potency of androgens can be determined in vitro using the cytoplasmic androgen receptor from human breast tumor cells (MCF-7 cell line); see Bergink, E. W. et al, Comparison of the receptor binding properties of nandrolone and testosterone under in vitro and in vivo conditions, J. Steroid Biochem. 22, 831-836 (1985). It is also possible to use Chinese hamster ovary (CHO) cells transfected with the human androgen receptor (incubation time 16 h, temperature 4° C.) and compared with the affinity of 5α-dihydrotestosterone [according to the procedure described by Bergink, E. W. et al, J. Steroid Biochem. 19, 1563-1570 (1983)]. The transactivative androgen activity of the compounds of the invention can be measured, e.g. in Chinese hamster ovary cells (CHO) transfected with the human androgen receptor (hAR), in combination with a mouse mammary tumor virus (MMTV), and luciferase […] gene (incubation time 16 h, temperature 37° C.) and compared with the activity of […] [according to the procedure described by Schoonen, W. G. E. J. et al, Analyt. […] In this test the androgenic (increase in prostate weight) and anabolic activities [increase of the musculus levator ani (MLA)] of a compound are tested in immature castrated rats after daily administration for 7 days; see Hershberger, L. G. et al, Myotrophic activity of 19-Nortestosteronie and other steroids determined by modified levator ani muscle method, Proceedings of the society for experimental biology and medicine 83, 175-180 (1953). […]
The transactivative androgen activity was determined in a comparison of the following compounds: the compound of Example 1 according to the invention, i.e. (7α,14β,16α,17α)-16,17-dihydro-17-(hydroxymethyl)-7-methyl-3′H-cyclopropa[16,17]estra-4,16-dien-3-one, and compounds denoted C1 and C2, not according to the invention, which respectively are (7α,14β,16β,17α)-17-(hydroxymethyl)-7,16-dimethylestr-4-en-3-one and (7α,14β,17α)-17-(hydroxymethyl)-7,17-dimethylestr-4-en-3-one as disclosed in WO 00/53619.

Structure (SMILES)	Transactivative androgen activity
C[C@@H]1CC2=CC(=O)CC[C@@H]2[C@H]2CC[C@@]3(C)[C@H](C[C@@H]4C[C@@]43CO)[C@@H]21 [Example 1, (7α,14β,16α,17α)-16,17-Dihydro-17-(hydroxymethyl)-7-methyl-3′H-cyclopropa[16,17]estra-4,16-dien-3-one]	263
C[C@@H]1CC2=CC(=O)CC[C@@H]2[C@H]2CC[C@@]3(C)[C@H](C[C@H](C)[C@H]3CO)[C@@H]21 [Example C1, (7α,14β,16β,17α)-17-(hydroxymethyl)-7,16-dimethylestr-4-en-3-one]	72
CC1CC2=CC(=O)CCC2C2CCC3(C)C(CCC3(C)CO)C12 (stereo not drawn) [Example C2, (7α,14β,17α)-17-(hydroxymethyl)-7,17-dimethylestr-4-en-3-one]	22

tested on: androgen receptor; test: androgenic activity rating (procedures described above); parameters: key: +: androgenic activity found; ++: high androgenic activity; +++: excellent androgenic activity; details: rated according to scheme; test procedure not specified
Protocol: Androgenic activity can be measured in various ways. Thus, the potency of androgens can be determined in vitro using the cytoplasmic androgen receptor from human breast tumor cells (MCF-7 cell line); see Bergink, E. W. et al, Comparison of the receptor binding properties of nandrolone and testosterone under in vitro and in vivo conditions, J. Steroid Biochem. 22, 831-836 (1985). It is also possible to use Chinese hamster ovary (CHO) cells transfected with the human androgen receptor (incubation time 16 h, temperature 4° C.) and compared with the affinity of 5α-dihydrotestosterone [according to the procedure described by Bergink, E. W. et al, J. Steroid Biochem. 19, 1563-1570 (1983)]. The transactivative androgen activity of the compounds of the invention can be measured, e.g. in Chinese hamster ovary cells (CHO) transfected with the human androgen receptor (hAR), in combination with a mouse mammary tumor virus (MMTV), and luciferase […] gene (incubation time 16 h, temperature 37° C.) and compared with the activity of […] [according to the procedure described by Schoonen, W. G. E. J. et al, Analyt. Biochem. 261, 222-224 (1998)]. For the in vivo potency determination of androgens the classical Hershberger test can be used. In this test the androgenic (increase in prostate weight) and anabolic activities [increase of the musculus levator ani (MLA)] of a compound are tested in immature castrated rats after daily administration for 7 days; see Hershberger, L. G. et al, Myotrophic activity of 19-Nortestosteronie and other steroids determined by modified levator ani muscle method, Proceedings of the society for experimental biology and medicine 83, 175-180 (1953). Additionally, the effect of an androgenic compound on LH suppression can be tested in mature castrated rats according to Kumar, N. et al, The biological activity of 7alpha-methyl-19-nortestosterone is not amplified in male reproductive tract as is that of testosterone, Endocrinology 130, 3677-3683 (1992).
The compounds according to the invention were tested for androgenic activity (the procedures for which have been described above) and rated according to the following scheme: […]

Structure (SMILES)	Result (androgenic activity)
C[C@@H]1CC2=CC(=O)CC[C@@H]2[C@H]2CC[C@@]3(C)[C@H](C[C@@H]4C[C@@]43CO)[C@@H]21 [Example 1, (7α,14β,16α,17α)-16,17-Dihydro-17-(hydroxymethyl)-7-methyl-3′H-cyclopropa[16,17]estra-4,16-dien-3-one]	+++
C[C@@H]1CC2=CC(=O)CC[C@@H]2[C@H]2CC[C@@]3(C)[C@H](C[C@@H]4C[C@@]43[C@H](C)O)[C@@H]21 [Example 2, (7α,14β,16α,17α,20S)-16,17-Dihydro-20-hydroxy-7-methyl-3′H-cyclopropa[16,17]-19-norpregna-4,16-dien-3-one]	++
CC[C@H](O)[C@]12C[C@H]1C[C@@H]1[C@H]3[C@H](CC[C@@]12C)[C@H]1CCC(=O)C=C1C[C@H]3C [Example 3a, [7α,14β,16α,17α(20S)]-16,17-Dihydro-20-(1-hydroxypropyl)-7-methyl-3′H-cyclopropa [16,17]estra-4,16-dien-3-one]	++
C#C[C@H](O)[C@]12C[C@H]1C[C@@H]1[C@H]3[C@H](CC[C@@]12C)[C@H]1CCC(=O)C=C1C[C@H]3C [Example 3b, [7α,14β,16α,17α(20S)]-16,17-Dihydro-20-(1-hydroxy-2-propynyl)-7-methyl-3 ′H-cyclopropa[16,17]estra-4,16-dien-3-one]	++
C[C@@H]1CC2=C[C@@H](O)CC[C@@H]2[C@H]2CC[C@@]3(C)[C@H](C[C@@H]4C[C@@]43CO)[C@@H]21 [Example 4, (3β,7α,14β,16α,17α)-16,17-Dihydro-17-(hydroxymethyl)-7-methyl-3′H-cyclopropa[16,17]estra-4,16-dien-3-ol]	(prodrug)
C[C@@H]1CC2=C/C(=N/O)CC[C@@H]2[C@H]2CC[C@@]3(C)[C@H](C[C@@H]4C[C@@]43CO)[C@@H]21 [Example 5a, (3E,7α,14β,16α,17α)-16,17-Dihydro-3-(hydroxyimino)-7-methyl-3′H-cyclopropa[16,17]estra-4,16-diene-17-methanol]	(prodrug)
C[C@@H]1CC2=C/C(=N\O)CC[C@@H]2[C@H]2CC[C@@]3(C)[C@H](C[C@@H]4C[C@@]43CO)[C@@H]21 [Example 5b, (3Z,7α,14β,16α,17α)-16,17-dihydro-3-(hydroxyimino)-7-methyl-3′H-cyclopropa[16,17]estra-4,16-diene-17-methanol]	(prodrug)
C[C@]12CC[C@H]3[C@@H](CCC4=CC(=O)CC[C@@H]43)[C@H]1C[C@@H]1C[C@@]12CO [Example 6, (14β,16α,17α)-16,17-Dihydro-17-(hydroxymethyl)-3′H-cyclopropa[16,17]estra-4,16-dien-3-one]	++
C[C@]12CC[C@H]3[C@@H](CC[C@H]4CC(=O)CC[C@@H]43)[C@H]1C[C@@H]1C[C@@]12CO [Example 7, (5α,14β,16α,17α)-16,17-Dihydro-17-(hydroxymethyl)-3′H-cyclopropa[16,17]estr-16-en-3-one]	++
